In ChEMBL document CHEMBL4138075, “Concise synthesis and antiproliferative activity evaluation of ellipticine quinone and its analogs” (Eur J Med Chem, 2017):
pIC50: −log10 of the molar value. Each block holds one molecule with its values, some of them ahead of it.

What was measured:
HCT-116 = assay: Antiproliferative activity against human HCT116 cells measured after 48 hrs by MTT assay; format: functional, cell-based; settings: HCT-116, 48 h
HL-60 = assay: Antiproliferative activity against human HL60 cells measured after 48 hrs by WST1 assay; format: functional, cell-based; settings: HL-60, 48 h

Compound: O=C1c2ccncc2C(=O)c2c1[nH]c1cc(C(F)(F)F)ccc21
- pIC50 (HCT-116): 5.34
- pIC50 (HL-60): < 5.00

Compound: COc1ccc2c3c([nH]c2c1)C(=O)c1ccncc1C3=O
- pIC50 (HCT-116): 5.50
- pIC50 (HL-60): 5.05

Compound: Cc1ccc2[nH]c3c(c2c1)C(=O)c1cnccc1C3=O
- pIC50 (HCT-116): 6.07
- pIC50 (HL-60): 5.37

Compound: O=C1c2ccncc2C(=O)c2c1[nH]c1cc([N+](=O)[O-])ccc21
- pIC50 (HCT-116): 5.90
- pIC50 (HL-60): 5.35

Compound: COc1cc2[nH]c3c(c2cc1OC)C(=O)c1cnccc1C3=O
- pIC50 (HCT-116): 5.43
- pIC50 (HL-60): 5.13

Compound: O=C1c2ccncc2C(=O)c2c1[nH]c1cc(F)ccc21
- pIC50 (HCT-116): 5.80
- pIC50 (HL-60): 5.35

Compound: COc1ccc2[nH]c3c(c2c1)C(=O)c1cnccc1C3=O
- pIC50 (HCT-116): 5.27
- pIC50 (HL-60): < 5.00

Compound: CC[C@@]1(O)C(=O)OCc2c1cc1n(c2=O)Cc2cc3ccccc3nc2-1 [CAMPTOTHECIN]
- pIC50 (HCT-116): 6.80
- pIC50 (HL-60): 7.72

Further lines, results first:

- pIC50 (HCT-116): 6.06
- pIC50 (HL-60): 5.48
Compound: O=C1c2ccncc2C(=O)c2c1[nH]c1ccccc21

- pIC50 (HCT-116): 6.73
- pIC50 (HL-60): 5.87
Compound: O=C1c2ccncc2C(=O)c2c1[nH]c1ccc([N+](=O)[O-])cc21

- pIC50 (HCT-116): 5.86
- pIC50 (HL-60): 5.41
Compound: O=C1c2ccncc2C(=O)c2c1[nH]c1ccc(Cl)cc21

- pIC50 (HCT-116): 5.39
- pIC50 (HL-60): < 5.00
Compound: O=C1c2ccncc2C(=O)c2c1[nH]c1cc(Cl)ccc21

- pIC50 (HCT-116): 5.78
- pIC50 (HL-60): 5.29
Compound: O=C1c2ccncc2C(=O)c2c1[nH]c1ccc(C(F)(F)F)cc21

- pIC50 (HCT-116): 5.24
- pIC50 (HL-60): < 5.00
Compound: Cc1ccc2c3c([nH]c2c1)C(=O)c1ccncc1C3=O

- pIC50 (HCT-116): 5.95
- pIC50 (HL-60): 5.35
Compound: O=C1c2ccncc2C(=O)c2c1[nH]c1ccc(F)cc21
